Data set [1] in a line: Activity of image coupler in single layer film (maximum slope relative to control coupler C-1). As to conditions: developer pH=10, ratio to maximum slope of C-1 control, higher ratio implies higher activity. The protocol: (§1) The emulsion was an undyed, but chemically sensitized, 0.7 micron polymorphic silver iodobromide emulsion containing 3.5% mole of iodide. The coating structure is shown below.
(§2) Monolayer coatings were panchromatically exposed and processed in developer solutions of different pH values. A stop bath was used to eliminate any complications due to the continuing coupling reaction. The processing procedure and solution formulations are listed below.
Further single layer film elements were prepared as above, given a stepped exposure and processed (developer pH=10). The activity of an image coupler was determined by determining the maximum slope between any two adjacent steps for the coupler and dividing by the maximum slope of a corresponding control sample containing coupler C-1 processed at the same time as the sample. A higher ratio implies higher activity. The logP of the R3 fragment (a quantity also referred to as π) was calculated as described in the Detailed Description of the invention.

The nature of data set [2]: pH sensitivity of gamma in single layer film, normalized to C-1. As to conditions: developer pH 9.75, 10, 10.37, normalized by division with pH sensitivity of C-1.
Excerpt: To measure the pH sensitivity of a single layer film, the following was done. A stepped exposure was applied to three identical strips of the film. One strip was processed with the normal C-41 process at pH of about 10. A second strip was processed in the same developer in which the pH was decreased to 9.75, while the third strip was processed in the same developer in which the pH was increased to 10.37.
as §1, §2
The D-logE Status M gamma was measured for each film and the three gammas were used as input to a least-squares regression in which gamma was the response, and the factors were pH and pH-squared in a linear model with an intercept. Before regression, the three pH values were shifted (centered) to have a mean of zero (-0.31, 0, 0.31). The coefficient of the main effect, pH, in the regression is the pH sensitivity of gamma, which was normalized by division with the pH sensitivity of the comparison coupler C-1 (Table 2) that was processed at the same time as each test coupler.

A short description of data set [3]: Green pH sensitivity of gamma in multilayer film (format ML-A), normalized to C-1. As to conditions: for pH Sensitivity: multilayer film ML-A, developer pH 9.95 to 10.15, relative normalized pH sensitivity of green gamma vs C-1. The source says:
The formulas for the multilayer organic components are provided following the examples. The multilayer format used was an ISO 200 speed format (designated ML-A).
Table 4 indicates the experiment number, whether it is a comparative or inventive example, the magenta coupler used in the designated green sensitive layers and the laydown in each of those layers.
To measure the green pH sensitivity of a multilayer film, the following was done. A neutral stepped exposure was applied to nine 35-mm strips of the film. One strip was processed with the normal C-41 process. The other eight strips were processed in a 2**3 factorial design in which the pH of the developer solution was varied from 9.95 to 10.15, the bromide was varied from 0.8 g/L to 1.8 g/L, and the concentration of the developer was varied from 3.5 g/L to 5.5 g/L. The green Status M photographic D-logE gammas were measured for each film at mid-exposure, and each gamma was normalized by dividing by the average gamma for all nine strips.
The nine normalized gammas that were obtained at the nine combinations of pH, Br, and developer concentration were used as input to a least-squares regression in which normalized gamma was the response, and the factors were pH, Br, and developer concentration in a linear model with an intercept. The coefficient of pH is the sensitivity of normalized gamma to pH, and this was further normalized (divided) by the sensitivity of the comparison coupler C-1 (Table 2) that was processed at the same time as each test coupler.

On to `CCCCCCCCCCCCCCCC(=O)N(Cc1ccc(C(=O)O)cc1)C(C)c1n[nH]c2c(Cl)c(C)nn12` (centres unmarked) [Mag C-5], for which, in data set [1], the Activity turned out to be 1.34. Also, the “pH Sensitivity” value in data set [2] was 1.32.
Regarding `CCCCCCCCCCCCCCCCCCCCCC(=O)N(c1cccc(C(=O)O)c1)C(CC)c1n[nH]c2c(Cl)c(C)nn12` (centres unmarked) [Mag-11], in data set [3], the “pH Sensitivity” value is given as 0.56.
With `CCCCCCCCCCCCCCCCCCCCCC(=O)N(c1cccc(C(=O)OC)c1)C(C)c1n[nH]c2c(Cl)c(C)nn12` (centres unmarked) [Mag C-14], the Activity is given as 0.43 in data set [1] and “substantial loss of activity” in data set [1] (listed as SL-11).
Turning to `CCCCCCCCCCCCCCCCCCCC(=O)N(CCCC(=O)O)C(c1ccccc1)c1n[nH]c2c(Cl)c(C)nn12` (centres unmarked) [Mag C-12], the Activity in data set [1] was found to be 0.91. Besides, the “pH Sensitivity” value in data set [2] amounted to 0.75.
As to `CCCCCCCCCCCCCCCC(=O)N(c1cccc(CC(=O)O)c1)C(c1ccccc1)c1n[nH]c2c(Cl)c(C)nn12` (centres unmarked) [Mag C-8], in data set [1], the Activity came to 1.26. Further, the “pH Sensitivity” value in data set [2] was 1.43.
Turning to `CCCCCCCCCCCCC(c1n[nH]c2c(Cl)c(C)nn12)N(C(=O)CCCCC)c1cccc(C(=O)O)c1` (centres unmarked) [Mag C-13], the Activity in data set [1] amounted to 1.33.
Take `CCCCCCCCCCCCCCCC(=O)N(c1ccc(CC(=O)O)cc1)C(c1ccccc1)c1n[nH]c2c(Cl)c(C)nn12` (centres unmarked) [Mag C-4]: in data set [1], the Activity was found to be 0.87. Also, in data set [2], the “pH Sensitivity” value is given as 1.32.
Take `CCCCCCCCCCCCC(c1n[nH]c2c(Cl)c(C)nn12)N(CCCCCCCC)C(=O)CCC(=O)O` (centres unmarked) [Mag C-1]: the Activity in data set [1] is reported as 1.00. For the same compound, the “pH Sensitivity” value in data set [2] and in data set [3] was 1.00 in each case.
As to `CCCCCCCCCCCCCCCCCC(=O)N(CCCCCC(=O)O)C(C)c1n[nH]c2c(Cl)c(C)nn12` (centres unmarked) [Mag C-7], the Activity in data set [1] was determined as 1.04. Further, the “pH Sensitivity” value in data set [2] is listed as 1.32.
With `CCCCCCCCCCCCCCCCCCCCCC(=O)N(c1cccc(C(=O)O)c1)C(C)c1n[nH]c2c(Cl)c(C)nn12` (centres unmarked) [Mag-1], the Activity in data set [1] was determined as 1.50. Moreover, the “pH Sensitivity” value was 0.83 in data set [2] and 0.52 in data set [3].
For `CCCCCCCCCCCCCCCc1cccc(OC(CCCC)C(=O)N(c2cccc(C(=O)O)c2)C(C)c2n[nH]c3c(Cl)c(C)nn23)c1` (centres unmarked) [Mag-7], in that order: 1.22, 0.83 and 0.59.
For the compound `CCCCCCCCCCC(Oc1ccc(S(=O)(=O)c2ccc(O)cc2)cc1)C(=O)Nc1ccc(CCCc2n[nH]c3c(Cl)c(C)nn23)cc1` (centres unmarked) [Mag C-2], the Activity in data set [1] came out at 0.51. Further, the “pH Sensitivity” value in data set [2] amounted to 1.39.
Consider `CCCCCCCCCCCCC(Oc1ccc(C(C)(C)CC(C)(C)C)cc1)C(=O)N(c1cccc(C(=O)O)c1)C(C)c1n[nH]c2c(Cl)c(C)nn12` (centres unmarked) [Mag-6], for which, in data set [1], the Activity is recorded as 1.15. Besides, the “pH Sensitivity” value in data set [2] is given as 0.75.
Consider `CCCCCCCCCCCCCCCCCC(=O)N(c1cccc(C(=O)O)c1)C(C)c1n[nH]c2c(Cl)c(C)nn12` (centres unmarked) [Mag C-11], for which the Activity in data set [1] is reported as 1.33. The results for the “pH Sensitivity” value in data set [2] and in data set [3] were 1.05 and 0.63, respectively.
For `CCCCCC(=O)N(c1cccc(C(=O)O)c1)C(C)c1n[nH]c2c(Cl)c(C)nn12` (centres unmarked) [Mag C-15], the “pH Sensitivity” value in data set [3] is reported as 0.41. For the same compound, in data set [3] (multilayer, solubility and washout of its magenta dye), the “magenta dye formed from coupler remaining in the film after processing” value is given as “very little”.
As for `CCCCCCCCCCCCCCCC(=O)N(c1cccc(C(=O)O)c1)C(C)c1n[nH]c2c(Cl)c(C)nn12` (centres unmarked) [Mag C-10], in data set [1], the Activity was 1.52. For the same compound, the “pH Sensitivity” value is on record as 0.51 in data set [2] and 0.66 in data set [3].

(Values after patent US5681691A, “Photographic element containing an improved pyrazolotriazole coupler” (Eastman Kodak Company, priority 1996, dated 1997).)
